Laboratory results published in paper PMC4728661, “Cancer Prevention and Health Benefices of Traditionally Consumed Borago officinalis Plants” (Nutrients, 2016).

Experiments:
HL-60 cell = conditions: 0.1 mM in cell medium; cited from earlier work
HL-60 cells [1] = test system: HL-60 cells; design: method as in PMID 19067382; conditions: SY in extracts of Elaphomyces granulates, concentrations up to ~31 µg·mL^−1; cited from earlier work
D. melanogaster = test: Antigenotoxicity: SMART, combined treatments with H2O2 0.12 M; type: in vivo, Drosophila melanogaster; on Diagnosis, Large Single Spots >2 Cells m = 5: key: + (positive); − (negative); on Diagnosis, Small Single Spots 1–2 Cells m = 2: key: + (positive); − (negative); on Diagnosis, Total Spots m = 2: key: + (positive); − (negative); on Diagnosis, Twin Spots m = 5: key: + (positive); − (negative)
Protocol: The D. melanogaster system was selected for the determination of the safety of B. officinalis consumption as a well-recognized method to analyze vegetable complex mixtures using SMART [31, 32]. This test was used in order to evaluate the genotoxic and antigenotoxic activity of B. officinalis leaves and petioles as well as their selected bioactive compounds [33]. This activity was measured by direct visualization of the occurrence of recessive mutations in the wing hairs of two different D. melanogaster strains. Flies from experiments carried these visible wing genetic markers: the flare (flr) strain […]) TM3, Bd^s and the multiple wing-hair (mwh) strain […] [35]. The marker flare (flr^3, 3_38.3) produces individual malformed hairs and the marker multiple wing hairs (mwh, 3_0.3) produces multiple hairs per cell. Larvae used in treatments come from two types of crosses: the standard cross with flr^3/TM3, Bd^S females mated to […] and the reciprocal cross. Optimal fertile flies were anesthetized under CO2 narcotisation for cross selection and then placed in new vials for fertilization. After that, hybrid eggs from crossing were collected over an 8 h period and emerged larvae (72 ± 4 h later) were cleaned up for a few seconds in sterile distilled water to remove feeding medium rests. […] Bioactive compound concentrations were chosen on the basis of their known content in B. officinalis species. […] Larvae were fed on these media until pupation (about 48 h). After emergence, resulting adult flies were sacrificed under CO2 narcotisation and stored in a 70% ethanol solution in sterile water. […] For the evaluation of genotoxic effects, the frequencies of spots per fly of each treated series were compared to the concurrent negative control for each class of mutational clone as well as between simple and combined treatments for the same concentration comparisons. […] A multiple-decision procedure was used to categorize results as positive, inconclusive or negative. Inconclusive and positive results were evaluated by the non-parametric U test of Mann, Whitney and Wilcoxon. The inhibition percentage (IP) of genotoxicity was calculated from the total frequencies of spots per wing, following this formula [42]: IP = (genotoxin alone - sample + genotoxin) × 100/(genotoxin alone)(2) Significant differences of IP for each treatment respect to the positive control were analyzed with a Chi-square test.

HL-60 cells [2] = test: Cytotoxicity: HL-60 growth/viability, Trypan Blue dye exclusion; type: cell-based, human; conditions: 72 h; for Effect on HL-60 growth: 0.03–1 mM
Protocol: (§1) The human acute promyelocytic leukemia cell line HL-60 was routinely grown in suspension in RPMI medium (Invitrogen, Madrid, Spain) containing glutamine ([…], Sigma-Aldrich, St. Louis, MO, USA), antibiotics (100IU penicillin mL^−1 and 100 μg streptomycin mL^−1, Sigma-Aldrich) and supplemented with 10% heat-inactivated foetal bovine serum (Linus, Cultek, Madrid, Spain) and placed in an incubator (Shel Lab, Cornelious, OR, USA) with a 5% CO2 humidified atmosphere at 37 °C [36]. HL-60 cells were subcultured every 2–3 days to maintain logarithmic growth and they were allowed to grow for 48 h before use. Cultures were plated at a density of 12.5 × 10^4 cells mL^−1 in 40 mL culture flasks (25 cm^2). Cytotoxic activity was measured as growing inhibition or decreased viability on HL-60 cells following a previous protocol modified by us. […] Cells were counted after 72 h treatment. Tested concentrations were calculated according to those used for in vivo assays to equal the range of tested doses. Untreated cultures were used as negative control. Cell viability was determined by the Trypan Blue dye exclusion test. Cells were stained with an equal volume of Trypan Blue commercial solution (Sigma-Aldrich) and counted using a hemocytometer at room temperature under a light inverted microscope (AE30/31, Motic, Barcelona, Spain). Cytotoxic effect evaluation was determined after each culture incubation period, establishing a growth curve and determining IC50 values by regression analysis of the curves. Viability estimated regressions of leukemia cells are presented as a survival percentage with respect to controls at 72 h growth and plotted as mean viability ± standard error of at least three independent replicas for each treatment and concentration.

[3] = as above; type: cell-based, human; conditions: human, HL-60 cells (acute promyelocytic leukemia); HL-60, 72 h treatment, Trypan Blue; read-out: IC50 (cytotoxic effect)
Protocol: as §1

rats = test system: rats; design: method as in PMID 16026713; conditions: doses of 2 and 8 mg·kg^−1, brain tissue and peripheral blood; cited from earlier work
V79 cell line = test system: V79 cell line; design: method as in doi:10.3389/conf.fgene.2015.01.0004; conditions: dose dependent, concentrations below 2 mM reduce DNA damage; cited from earlier work
[4] = combined with 0.12 M H2O2, 0.16 mM SY
[5] = combined with 0.12 M H2O2, 0.32 mM SY
[6] = combined with 0.12 M H2O2, 0.63 mM SY
[7] = combined with 0.12 M H2O2, 1.26 mM SY
[8] = combined with 0.12 M H2O2, 0.35 mM RO
[9] = combined with 0.12 M H2O2, 0.7 mM RO
[10] = combined with 0.12 M H2O2, 1.39 mM RO
[11] = combined with 0.12 M H2O2, 2.78 mM RO
[12] = combined with 0.12 M H2O2, 0.15 mM SI
[13] = combined with 0.12 M H2O2, 0.29 mM SI
[14] = combined with 0.12 M H2O2, 0.58 mM SI
[15] = combined with 0.12 M H2O2, 1.16 mM SI

COc1cc(C(=O)O)cc(OC)c1O [SY, syringic acid]
Apoptosis induction in HL-60 (HL-60 cell): did not induce apoptosis
Cytotoxic effect in HL-60 (HL-60 cells [1]): no cytotoxic effect
Diagnosis, Small Single Spots 1–2 Cells m = 2 (D. melanogaster; [4]): −
Diagnosis, Total Spots m = 2 (D. melanogaster; [4]): −
Mutation rate, Large Single Spots >2 Cells m = 5 (D. melanogaster; [4]): 0 spots/wing
Mutation rate, Small Single Spots 1–2 Cells m = 2 (D. melanogaster; [4]): 0.23 (5) spots/wing
Mutation rate, Total Spots m = 2 (D. melanogaster; [4]): 0.23 (5) spots/wing
Mutation rate, Twin Spots m = 5 (D. melanogaster; [4]): 0 spots/wing
Diagnosis, Small Single Spots 1–2 Cells m = 2 (D. melanogaster; [5]): −
Diagnosis, Total Spots m = 2 (D. melanogaster; [5]): −
Mutation rate, Large Single Spots >2 Cells m = 5 (D. melanogaster; [5]): 0 spots/wing
Mutation rate, Small Single Spots 1–2 Cells m = 2 (D. melanogaster; [5]): 0.30 (3) spots/wing
Mutation rate, Total Spots m = 2 (D. melanogaster; [5]): 0.30 (3) spots/wing
Mutation rate, Twin Spots m = 5 (D. melanogaster; [5]): 0 spots/wing
Diagnosis, Small Single Spots 1–2 Cells m = 2 (D. melanogaster; [6]): −
Diagnosis, Total Spots m = 2 (D. melanogaster; [6]): −
Mutation rate, Large Single Spots >2 Cells m = 5 (D. melanogaster; [6]): 0 spots/wing
Mutation rate, Small Single Spots 1–2 Cells m = 2 (D. melanogaster; [6]): 0.28 (9) spots/wing
Mutation rate, Total Spots m = 2 (D. melanogaster; [6]): 0.28 (9) spots/wing
Mutation rate, Twin Spots m = 5 (D. melanogaster; [6]): 0 spots/wing
Diagnosis, Small Single Spots 1–2 Cells m = 2 (D. melanogaster; [7]): −
Diagnosis, Total Spots m = 2 (D. melanogaster; [7]): −
Mutation rate, Large Single Spots >2 Cells m = 5 (D. melanogaster; [7]): 0 spots/wing
Mutation rate, Small Single Spots 1–2 Cells m = 2 (D. melanogaster; [7]): 0.32 (7) spots/wing
Mutation rate, Total Spots m = 2 (D. melanogaster; [7]): 0.32 (7) spots/wing
Mutation rate, Twin Spots m = 5 (D. melanogaster; [7]): 0 spots/wing
Effect on HL-60 growth (HL-60 cells [2]): did not affect HL-60 growth

O=C(/C=C/c1ccc(O)c(O)c1)O[C@H](Cc1ccc(O)c(O)c1)C(=O)O [RO, rosmarinic acid]
Diagnosis, Small Single Spots 1–2 Cells m = 2 (D. melanogaster; [8]): −
Diagnosis, Total Spots m = 2 (D. melanogaster; [8]): −
Mutation rate, Large Single Spots >2 Cells m = 5 (D. melanogaster; [8]): 0 spots/wing
Mutation rate, Small Single Spots 1–2 Cells m = 2 (D. melanogaster; [8]): 0.17 (5) spots/wing
Mutation rate, Total Spots m = 2 (D. melanogaster; [8]): 0.17 (5) spots/wing
Mutation rate, Twin Spots m = 5 (D. melanogaster; [8]): 0 spots/wing
Diagnosis, Large Single Spots >2 Cells m = 5 (D. melanogaster; [9]): −
Diagnosis, Small Single Spots 1–2 Cells m = 2 (D. melanogaster; [9]): −
Diagnosis, Total Spots m = 2 (D. melanogaster; [9]): −
Diagnosis, Twin Spots m = 5 (D. melanogaster; [9]): −
Mutation rate, Large Single Spots >2 Cells m = 5 (D. melanogaster; [9]): 0.08 (3) spots/wing
Mutation rate, Small Single Spots 1–2 Cells m = 2 (D. melanogaster; [9]): 0.35 (14) spots/wing
Mutation rate, Total Spots m = 2 (D. melanogaster; [9]): 0.45 (18) spots/wing
Mutation rate, Twin Spots m = 5 (D. melanogaster; [9]): 0.03 (1) spots/wing
Diagnosis, Large Single Spots >2 Cells m = 5 (D. melanogaster; [10]): −
Diagnosis, Small Single Spots 1–2 Cells m = 2 (D. melanogaster; [10]): −
Diagnosis, Total Spots m = 2 (D. melanogaster; [10]): −
Mutation rate, Large Single Spots >2 Cells m = 5 (D. melanogaster; [10]): 0.14 (3) spots/wing
Mutation rate, Small Single Spots 1–2 Cells m = 2 (D. melanogaster; [10]): 0.14 (3) spots/wing
Mutation rate, Total Spots m = 2 (D. melanogaster; [10]): 0.27 (6) spots/wing
Mutation rate, Twin Spots m = 5 (D. melanogaster; [10]): 0 spots/wing
Diagnosis, Small Single Spots 1–2 Cells m = 2 (D. melanogaster; [11]): −
Diagnosis, Total Spots m = 2 (D. melanogaster; [11]): −
Diagnosis, Twin Spots m = 5 (D. melanogaster; [11]): −
Mutation rate, Large Single Spots >2 Cells m = 5 (D. melanogaster; [11]): 0 spots/wing
Mutation rate, Small Single Spots 1–2 Cells m = 2 (D. melanogaster; [11]): 0.21 (11) spots/wing
Mutation rate, Total Spots m = 2 (D. melanogaster; [11]): 0.25 (13) spots/wing
Mutation rate, Twin Spots m = 5 (D. melanogaster; [11]): 0.04 (2) spots/wing
Viable HL-60 cells (HL-60 cells [2]; RO (alone or in the mixture) at concentrations over 0.55 mM): no viable cells could be detected
IC50 at 72 h [3]: 70 µM
Genotoxic effect, comet assay (rats): no genotoxic effect

COc1cc(/C=C/C(=O)O)cc(OC)c1O [SI, sinapic acid]
Genotoxic/antigenotoxic activity (V79 cell line): antigenotoxic
Diagnosis, Small Single Spots 1–2 Cells m = 2 (D. melanogaster; [12]): −
Diagnosis, Total Spots m = 2 (D. melanogaster; [12]): −
Mutation rate, Large Single Spots >2 Cells m = 5 (D. melanogaster; [12]): 0 spots/wing
Mutation rate, Small Single Spots 1–2 Cells m = 2 (D. melanogaster; [12]): 0.42 (5) spots/wing
Mutation rate, Total Spots m = 2 (D. melanogaster; [12]): 0.42 (5) spots/wing
Mutation rate, Twin Spots m = 5 (D. melanogaster; [12]): 0 spots/wing
Diagnosis, Small Single Spots 1–2 Cells m = 2 (D. melanogaster; [13]): −
Diagnosis, Total Spots m = 2 (D. melanogaster; [13]): −
Mutation rate, Large Single Spots >2 Cells m = 5 (D. melanogaster; [13]): 0 spots/wing
Mutation rate, Small Single Spots 1–2 Cells m = 2 (D. melanogaster; [13]): 0.25 (2) spots/wing
Mutation rate, Total Spots m = 2 (D. melanogaster; [13]): 0.25 (2) spots/wing
Mutation rate, Twin Spots m = 5 (D. melanogaster; [13]): 0 spots/wing
Diagnosis, Large Single Spots >2 Cells m = 5 (D. melanogaster; [14]): −
Diagnosis, Small Single Spots 1–2 Cells m = 2 (D. melanogaster; [14]): −
Diagnosis, Total Spots m = 2 (D. melanogaster; [14]): −
Diagnosis, Twin Spots m = 5 (D. melanogaster; [14]): −
Mutation rate, Large Single Spots >2 Cells m = 5 (D. melanogaster; [14]): 0.09 (2) spots/wing
Mutation rate, Small Single Spots 1–2 Cells m = 2 (D. melanogaster; [14]): 0.27 (6) spots/wing
Mutation rate, Total Spots m = 2 (D. melanogaster; [14]): 0.41 (9) spots/wing
Mutation rate, Twin Spots m = 5 (D. melanogaster; [14]): 0.05 (1) spots/wing
Diagnosis, Large Single Spots >2 Cells m = 5 (D. melanogaster; [15]): −
Diagnosis, Small Single Spots 1–2 Cells m = 2 (D. melanogaster; [15]): −
Diagnosis, Total Spots m = 2 (D. melanogaster; [15]): −
Mutation rate, Large Single Spots >2 Cells m = 5 (D. melanogaster; [15]): 0.04 (1) spots/wing
Mutation rate, Small Single Spots 1–2 Cells m = 2 (D. melanogaster; [15]): 0.25 (7) spots/wing
Mutation rate, Total Spots m = 2 (D. melanogaster; [15]): 0.29 (8) spots/wing
Mutation rate, Twin Spots m = 5 (D. melanogaster; [15]): 0 spots/wing
Effect on HL-60 growth (HL-60 cells [2]): did not affect HL-60 growth
